The values below come from ChEMBL document CHEMBL4028862 (J Med Chem, 2017).

Each structure is given as a SMILES string. Activity calls are given as the source filed them. The rule behind the calls is not given here.

Series [1] addresses T1, Acid-sensing ion channel 1 (Rattus norvegicus) (UniProt P55926).
T1 sequence (whole entry): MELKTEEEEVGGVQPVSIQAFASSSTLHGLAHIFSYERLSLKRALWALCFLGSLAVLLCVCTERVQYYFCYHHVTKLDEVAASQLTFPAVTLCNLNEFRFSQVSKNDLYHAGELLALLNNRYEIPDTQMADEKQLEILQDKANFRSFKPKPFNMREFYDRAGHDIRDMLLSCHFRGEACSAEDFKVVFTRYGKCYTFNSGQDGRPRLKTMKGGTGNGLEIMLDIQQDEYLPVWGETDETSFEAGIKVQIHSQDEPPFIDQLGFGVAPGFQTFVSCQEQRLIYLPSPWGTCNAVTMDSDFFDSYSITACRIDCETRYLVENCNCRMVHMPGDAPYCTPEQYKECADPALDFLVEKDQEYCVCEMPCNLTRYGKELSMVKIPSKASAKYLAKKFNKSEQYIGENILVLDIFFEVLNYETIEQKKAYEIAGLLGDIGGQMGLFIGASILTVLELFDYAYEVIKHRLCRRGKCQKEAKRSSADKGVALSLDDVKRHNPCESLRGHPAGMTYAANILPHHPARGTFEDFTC
As to the kind of experiment: Inhibition of rat ASIC1a receptor expressed in xenopus lavies oocytes at 0.1 to 3 mM at greater than pH 5 by two electrode voltage clamp. In kind it is cell-based. In general terms: In two-electrode clamp one electrode senses voltage and the other passes current.

The target in series [2] is T2, Acid-sensing ion channel 1 (Rattus norvegicus, UniProt P55926).
T2 sequence (P55926 whole entry): T1 sequence (whole entry)
As to the kind of experiment: Inhibition of rat ASIC1a receptor expressed in xenopus lavies oocytes assessed as inhibition of pH 6.7-gated currents by two electrode voltage clamp. In kind it is cell-based.

The target of series [3] is T3, Acid-sensing ion channel 3 (Rattus norvegicus, UniProt O35240).
T3 sequence (O35240 whole entry): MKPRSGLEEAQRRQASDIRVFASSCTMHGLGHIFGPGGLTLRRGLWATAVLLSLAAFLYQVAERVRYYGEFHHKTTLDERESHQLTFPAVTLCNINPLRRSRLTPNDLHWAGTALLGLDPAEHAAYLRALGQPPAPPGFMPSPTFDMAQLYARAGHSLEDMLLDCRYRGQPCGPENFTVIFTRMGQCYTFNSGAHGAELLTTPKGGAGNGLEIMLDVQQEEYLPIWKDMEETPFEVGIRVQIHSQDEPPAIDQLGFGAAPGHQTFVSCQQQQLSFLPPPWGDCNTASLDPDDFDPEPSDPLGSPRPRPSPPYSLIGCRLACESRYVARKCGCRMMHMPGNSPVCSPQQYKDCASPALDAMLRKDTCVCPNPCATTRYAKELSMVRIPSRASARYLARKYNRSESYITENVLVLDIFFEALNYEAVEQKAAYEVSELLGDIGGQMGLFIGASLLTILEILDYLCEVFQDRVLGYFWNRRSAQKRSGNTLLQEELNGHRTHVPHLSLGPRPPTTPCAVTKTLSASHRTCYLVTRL
As to the kind of experiment: Inhibition of rat ASIC3 receptor expressed in xenopus lavies oocytes assessed as inhibition of pH 6.4-gated currents by two electrode voltage clamp. Type of series: cell-based.

The nature of series [4]: Solubility of the compound in buffer at less than pH 5. In kind it is physicochemical.
The nature of series [5]: Solubility of the compound in buffer at pH 4. Type of series: physicochemical.
Series [6] addresses T1, Acid-sensing ion channel 1 (Rattus norvegicus).
The nature of the next series: cells. The settings on record: Rattus norvegicus.
The target of series [7] is T1, Acid-sensing ion channel 1 (Rattus norvegicus). As to the kind of experiment: Inhibition of rat ASIC1a receptor expressed in xenopus lavies oocytes at 0.03 to 3 mM at greater than pH 5 by two electrode voltage clamp. In kind it is cell-based.

As for `CC(C)Cc1ccc(C(C)[N+](=O)[O-])cc1` (centres undefined), the inhibition entry in series [1] is “inactive”.

On to `CC(C(=O)O)c1ccc(-c2ccccc2)c(F)c1` (racemic) [FLURBIPROFEN], for which the IC50 was 170 µM in series [2] and 229 µM in series [3].

For `Cc1ccc(C(C)C(=O)O)cc1` (centres undefined), the IC50 in series [2] is > 10000 µM; in series [3], 708 µM.

With `CC(C)Cc1ccc(CC(=O)O)cc1` [IBUFENAC], the results for the IC50 in series [2] and in series [3] were 1020 µM and 417 µM, respectively.

As to `CCC(C(=O)O)c1ccc(CC(C)C)cc1` (centres undefined) [BUTIBUFEN], the IC50 in series [2] was 182 µM; in series [3], 288 µM.

Turning to `CC(C)Cc1ccc(C(C)C(=O)O)cc1` (racemic) [IBUPROFEN], the solubility entry in series [4] and in series [5] was “Insoluble” in each case. In addition, the pH50 in series [6] was 6.6. The values for the IC50 in “cells” and in the series “cells” (read-out: pIC50 (converted)) were 3000 µM and 3160 µM, respectively.

In the case of `CC(C)Cc1ccc(C(F)C(=O)O)cc1` (centres undefined), the IC50 in series [2] is 955 µM; in series [3], 891 µM.

`CC(C)Cc1ccc(C(=O)O)cc1`: the inhibition entry in series [7] was “Active”. Moreover, the IC50 in series [2] is 417 µM; in series [3], 302 µM.
